# From patent US7470815B1, “Selective neuronal nitric oxide synthase inhibitors” (Northwestern University, priority 2006, dated 2008)
# Non-standard residues stand in square brackets, D forms with d. Residues, ends and D or L forms follow the SMILES beside them. dArg(NO2) = N=C(NCCC[C@@H](N)C(=O)O)N[N+](=O)[O-]
# Assays:
# [1] = target: T1, recombinant rat nNOS (Rattus norvegicus, UniProt P29476); details: prior art compound; cited from earlier work
# T1 construct: made in house; host or cells: E. coli
# [2] = target: T1, recombinant rat nNOS; test: NOS hemoglobin capture assay, inhibition of nNOS; type: biochemical; details: Dixon analysis and method of Cornish and Bowden
SMILES,selectivity for nNOS over iNOS [1] [fold],type of inhibition of nNOS [2]
COC(=O)[C@@H](CCCN=C(N)N[N+](=O)[O-])NC(=O)[C@H](N)Cc1ccccc1 [D-Phe-D-Arg^NO2-OMe] (H-[dF]-[dArg(NO2)]-OMe),1800,–
"N=C(NCCC[C@H](N)CNc1ccccc1CCN)N[N+](=O)[O-] [Compound 26, N-(4S)-{4-Amino-5-[2-(2-aminoethyl)phenylamino]-pentyl}-N′-nitroguanidine]",–,competitive inhibition
